For 26 molecules, IC50 results are on record in US20080200448A1, “New Pyridine Analogues VIII 518” (ASTRAZENECA AB, priority 2007, published 2008).

One may read the IC50 as the concentration that inhibits the measured activity by half.

Molecules are shown by their SMILES.

This test concerns the target T1, P2Y12 receptor (Homo sapiens, UniProt Q9H244).
T1 construct: expressed in transfected cells; host or cells: CHO cells (membrane preparation)
As to the kind of experiment: Functional inhibition of 2-Me-S-ADP induced P2Y12 signalling (35S-GTPγS binding, cell membranes). Type of test: biochemical. The settings on record: 35S-GTPγS assay, membranes, EC80 concentration of 2-methyl-thio-adenosine diphosphate, 30° C. for 45 min; read-out: GTPγS (IC50 μM). A digest of the protocol: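 Membranes (5 μg) from P2Y12-transfected CHO cells in pH 7.4 HEPES buffer with 10 μM GDP and saponin were stimulated with an EC80 of 2-methyl-thio-ADP plus compound and ^35S-GTPγS for 45 min at 30° C. Filter-retained ^35S-GTPγS was counted, normalised between agonist and no-agonist activity, and IC50 taken from a four-parameter fit.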
On the technique in general: GTPγS is a poorly hydrolysed GTP analogue; its binding reports G protein activation.

T1 sequence (Q9H244 whole entry): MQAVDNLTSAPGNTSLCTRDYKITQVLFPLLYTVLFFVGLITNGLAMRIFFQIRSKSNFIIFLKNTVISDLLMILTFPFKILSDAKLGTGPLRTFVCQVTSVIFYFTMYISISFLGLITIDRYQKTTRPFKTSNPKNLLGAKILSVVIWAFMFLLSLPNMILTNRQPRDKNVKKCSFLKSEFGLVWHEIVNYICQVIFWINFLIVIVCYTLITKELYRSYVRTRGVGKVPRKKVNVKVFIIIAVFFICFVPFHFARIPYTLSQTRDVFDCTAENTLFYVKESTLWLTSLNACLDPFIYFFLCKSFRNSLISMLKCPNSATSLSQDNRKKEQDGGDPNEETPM

`CCOC(=O)c1cc(Cl)c(N2CCC(C(=O)NS(=O)(=O)Cc3ccccc3)CC2)nc1SCCNC(C)=O` [Example 105, Ethyl 2-[(2-acetamidoethyl)thio]-6-{4-[(benzylsulfonyl)carbamoyl]piperidin-1-yl}-5-chloronicotinate]: the half-inhibitory concentration (IC50) is 0.048 µM.

Regarding `CCOC(=O)CCCc1nc(N2CCC(C(=O)NS(=O)(=O)Cc3ccccc3)CC2)c(C#N)cc1C(=O)OCC` [Example 106, Ethyl 6-{4-[(benzylsulfonyl)carbamoyl]piperidin-1-yl}-5-cyano-2-(4-ethoxy-4-oxobutyl)nicotinate], the IC50 worked out at 0.066 µM. Turning to `CCOC(=O)CCc1nc(N2CCC(C(=O)NS(=O)(=O)Cc3ccccc3)CC2)c(C#N)cc1C(=O)OCC` [Example 107, Ethyl 6-{4-[(benzylsulfonyl)carbamoyl]piperidin-1-yl}-5-cyano-2-(3-ethoxy-3-oxopropyl)nicotinate], the IC50 worked out at 0.056 µM. Take `CCOC(=O)CSc1nc(N2CCC(C(=O)NS(=O)(=O)Cc3ccc(F)cc3Cl)CC2)c(C#N)cc1C(=O)OCC` [Example 108, Ethyl 6-(4-{[(2-chloro-4-fluorobenzyl)sulfonyl]carbamoyl}piperidin-1-yl)-5-cyano-2-[(2-ethoxy-2-oxoethyl)thio]nicotinate]: the half-inhibitory concentration (IC50) came to 0.072 µM.

On to `CCOC(=O)CSc1nc(N2CCC(C(=O)NS(=O)(=O)Cc3ccc(Cl)cc3Cl)CC2)c(C#N)cc1C(=O)OCC` [Example 109, Ethyl 5-cyano-6-(4-{[(2,4-dichlorobenzyl)sulfonyl]carbamoyl}piperidin-1-yl)-2-[(2-ethoxy-2-oxoethyl)thio]nicotinate], for which the IC50 turned out to be 0.062 µM.

`CCOC(=O)CSc1nc(N2CCC(C(=O)NS(=O)(=O)CC3CCCC3)CC2)c(C#N)cc1C(=O)OCC` [Example 110, Ethyl 5-cyano-6-(4-{[(cyclopentylmethyl)sulfonyl]carbamoyl}piperidin-1-yl)-2-[(2-ethoxy-2-oxoethyl)thio]nicotinate]: the half-maximal inhibitory concentration (IC50) amounted to 0.053 µM. On to `CCOC(=O)c1cc(C#N)c(N2CCC(C(=O)NS(=O)(=O)Cc3ccccc3)CC2)nc1SCC(=O)OC(C)C` [Example 111, Ethyl 6-{4-[(benzylsulfonyl)carbamoyl]piperidin-1-yl}-5-cyano-2-[(2-isopropoxy-2-oxoethyl)thio]nicotinate], for which the IC50 came out at 0.016 µM. `CCOC(=O)c1cc(C#N)c(N2CCC(C(=O)NS(=O)(=O)Cc3ccccc3)CC2)nc1CCC(C)=O` [Example 112, Ethyl 6-{4-[(benzylsulfonyl)carbamoyl]piperidin-1-yl}-5-cyano-2-(3-oxobutyl)nicotinate]: the IC50 was determined as 0.022 µM. For `CCOC(=O)c1cc(C#N)c(N2CCC(C(=O)NS(=O)(=O)Cc3ccccc3)CC2)nc1OCCn1cccc1` [Example 113, Ethyl 6-{4-[(benzylsulfonyl)carbamoyl]piperidin-1-yl}-5-cyano-2-[2-(1H-pyrrol-1-yl)ethoxy]nicotinate], the IC50 stood at 0.05 µM. For `CCOC(=O)c1cc(C#N)c(N2CCC(C(=O)NS(=O)(=O)Cc3ccccc3)CC2)nc1OCCN1CCCC1=O` [Example 114, Ethyl 6-{4-[(benzylsulfonyl)carbamoyl]piperidin-1-yl}-5-cyano-2-[2-(2-oxopyrrolidin-1-yl)ethoxy]nicotinate], the IC50 is 0.027 µM. As for `CCOC(=O)c1cc(C#N)c(N2CCC(C(=O)NS(=O)(=O)Cc3ccccc3)CC2)nc1CSCC(=O)O` [Example 115, ({[6-{4-[(Benzylsulfonyl)carbamoyl]piperidin-1-yl}-5-cyano-3-(ethoxycarbonyl)pyridin-2-yl]methyl}thio)acetic acid], the IC50 was determined as 0.035 µM.

With `CCOC(=O)c1cc(C#N)c(N2CCC(C(=O)NS(=O)(=O)Cc3ccccc3)CC2)nc1CSCc1nccn1C` [Example 116, Ethyl 6-{4-[(benzylsulfonyl)carbamoyl]piperidin-1-yl}-5-cyano-2-({[(1-methyl-1H-imidazol-2-yl)methyl]thio}methyl)nicotinate], the IC50 amounted to 1.05 µM. Regarding `CCOC(=O)c1cc(C#N)c(N2CCC(C(=O)NS(=O)(=O)Cc3ccccc3)CC2)nc1CSc1nccs1` [Example 117, Ethyl 6-{4-[(benzylsulfonyl)carbamoyl]piperidin-1-yl}-5-cyano-2-[(1,3-thiazol-2-ylthio)methyl]nicotinate], the IC50 was 0.035 µM. Then `CCOC(=O)c1cc(C#N)c(N2CCC(C(=O)NS(=O)(=O)Cc3ccccc3)CC2)nc1CSc1nccn1C` [Example 118, Ethyl 6-{4-[(benzylsulfonyl)carbamoyl]piperidin-1-yl}-5-cyano-2-{[(1-methyl-1H-imidazol-2-yl)thio]methyl}nicotinate], with 0.052 µM. Take `CCOC(=O)c1cc(C#N)c(N2CCC(C(=O)NS(=O)(=O)Cc3ccccc3)CC2)nc1CSCCC(=O)OC` [Example 119, Ethyl 6-{4-[(benzylsulfonyl)carbamoyl]piperidin-1-yl}-5-cyano-2-{[(3-methoxy-3-oxopropyl)thio]methyl}nicotinate]: the half-maximal inhibitory concentration (IC50) is 0.042 µM. Under `CCOC(=O)c1cc(C#N)c(N2CCC(C(=O)NS(=O)(=O)Cc3ccccc3)CC2)nc1O[C@@H](C)C(=O)OCC` [Example 120, Ethyl 6-{4-[(benzylsulfonyl)carbamoyl]piperidin-1-yl}-5-cyano-2-[(1S)-2-ethoxy-1-methyl-2-oxoethoxy]nicotinate] stands 0.019 µM; under `CCOC(=O)c1cc(C#N)c(N2CCC(C(=O)NS(=O)(=O)Cc3ccccc3)CC2)nc1OCCCC(C)=O` [Example 121, Ethyl 6-{4-[(benzylsulfonyl)carbamoyl]piperidin-1-yl}-5-cyano-2-[(4-oxopentyl)oxy]nicotinate], 0.017 µM; under `CCOC(=O)CSCc1nc(N2CCC(C(=O)NS(=O)(=O)Cc3ccccc3)CC2)c(C#N)cc1C(=O)OCC` [Example 122, Ethyl 6-{4-[(benzylsulfonyl)carbamoyl]piperidin-1-yl}-5-cyano-2-{[(2-ethoxy-2-oxoethyl)thio]methyl}nicotinate], 0.077 µM.

Take `CCOC(=O)c1cc(C#N)c(N2CCC(C(=O)NS(=O)(=O)Cc3ccccc3)CC2)nc1CSCC(=O)N(C)C` [Example 123, Ethyl 6-{4-[(benzylsulfonyl)carbamoyl]piperidin-1-yl}-5-cyano-2-({[2-(dimethylamino)-2-oxoethyl]thio}methyl)nicotinate]: the IC50 was 0.057 µM.

`CCOC(=O)c1cc(C#N)c(N2CCC(C(=O)NS(=O)(=O)Cc3ccccc3)CC2)nc1SCC(=O)N1CCC1` [Example 124, Ethyl 2-[(2-azetidin-1-yl-2-oxoethyl)thio]-6-{4-[(benzylsulfonyl)carbamoyl]piperidin-1-yl}-5-cyanonicotinate]: the IC50 was 0.013 µM. Under `CCOC(=O)c1cc(C#N)c(N2CCC(C(=O)NS(=O)(=O)Cc3ccccc3)CC2)nc1OCC(=O)N(C)C` [Example 125, Ethyl 6-{4-[(benzylsulfonyl)carbamoyl]piperidin-1-yl}-5-cyano-2-[2-(dimethylamino)-2-oxoethoxy]nicotinate] stands 0.065 µM; under `CCOC(=O)CSc1nc(N2CCC(C(=O)NS(=O)(=O)Cc3ccccc3)CC2)c(C#N)cc1C(=O)OCC` [Example 126, Ethyl 6-{4-[(benzylsulfonyl)carbamoyl]piperidin-1-yl}-5-cyano-2-[(2-ethoxy-2-oxoethyl)thio]nicotinate], 0.011 µM; under `CCOC(=O)c1cc(F)c(N2CCC(C(=O)NS(=O)(=O)Cc3ccccc3)CC2)nc1CN1CCCC1=O` [Example 127, Ethyl 6-{4-[(benzylsulfonyl)carbamoyl]piperidin-1-yl}-5-fluoro-2-[(2-oxopyrrolidin-1-yl)methyl]nicotinate], 0.079 µM. Under `CCOC(=O)c1cc(C#N)c(N2CCC(C(=O)N(C)S(=O)(=O)Cc3ccccc3)CC2)nc1CN1CCCCC1=O` [Example 128, Ethyl 6-{4-[(benzylsulfonyl)(methyl)carbamoyl]piperidin-1-yl}-5-cyano-2-[(2-oxopiperidin-1-yl)methyl]nicotinate] stands 1.14 µM; under `COC(=O)c1cc(Cl)c(N2CCC(C(=O)NS(=O)(=O)Cc3ccccc3)CC2)nc1CN1CCCCC1=O` [Example 129, Methyl 6-{4-[(benzylsulfonyl)carbamoyl]piperidin-1-yl}-5-chloro-2-[(2-oxopiperidin-1-yl)methyl]nicotinate], 1.58 µM.

For the molecule `CCCOC(=O)c1cc(F)c(N2CCC(C(=O)NS(=O)(=O)Cc3ccccc3)CC2)nc1CN1CCCC1=O` [Example 130, Propyl 6-{4-[(benzylsulfonyl)carbamoyl]piperidin-1-yl}-5-fluoro-2-[(2-oxopyrrolidin-1-yl)methyl]nicotinate], the IC50 amounted to 0.122 µM.
